Assays:
BRD4-BD1 = BRD4-BD1 (Homo sapiens (Human), UniProt O60885); experiment: BRD4 AlphaScreen assay (BRD4-BD1); type: binding; conditions: biotin-labeled tetra-acetylated histone H4 peptide
Description: (§1) BRD4-BD1 and BRD4-BD2 assays were conducted in white 384-well polystyrene plate in a final volume of 40 μL for BD1 and 60 μL for BD2. Inhibitors were first serially diluted in DMSO and added to the plate wells before the addition of other reaction components. The final concentration of DMSO in the assay was 1.25% (BD1) and 0.83% (BD2). The assays were carried out at room temperature in the assay buffer (50 mM Tris-HCl, pH 7.5, 0.01% Tween-20, 0.01% BSA, 5 mM DTT), containing 50 nM Biotin-labeled tetra-acetylated histone H4 peptide (H4Ac4) and BRD4-BD1 or BRD4-BD2 protein at concentration less than 1 nM. The incubation for 75 min. was followed by the addition of 20 μL of assay buffer supplemented with Streptavidin donor beads (PerkinElmer 6760002) and GSH Acceptor beads (PerkinElmer-AL109C) at final concentration 2-4 μg/mL under reduced light. After plate sealing, the plate was incubated in the dark at room temperature for 75 min. before reading on a PHERAstar FS plate reader (BMG Labtech). IC50 determination was performed by fitting the curve of percent control activity versus the log of the inhibitor concentration using the GraphPad Prism 5.0 software.

BRD4-BD2 = BRD4-BD2 (Homo sapiens (Human), UniProt O60885); experiment: BRD4 AlphaScreen assay (BRD4-BD2); type: binding; conditions: biotin-labeled tetra-acetylated histone H4 peptide
Description: as §1

COc1cc2c(c(-c3cn(C)c(=O)c4[nH]ccc34)c1)OC(C1CC1)C(=O)N2 (stereo not drawn) [Example 23, 2-cyclopropyl-6-methoxy-8-(6-methyl-7-oxo-6,7-dihydro-1H-pyrrolo[2,3-c]pyridin-4-yl)-2H-1,4-benzoxazin-3(4H)-one]
IC50 (BRD4-BD1): ≤ 100 nM
IC50 (BRD4-BD2): ≤ 100 nM

CC(O)c1cc(-c2cn(C)c(=O)c3[nH]ccc23)c2c(c1)N(C)C(=O)C(C)(C)O2 (single isomer, unassigned) [Example 83A, 6-(1-hydroxyethyl)-2,2,4-trimethyl-8-(6-methyl-7-oxo-6,7-dihydro-1H-pyrrolo[2,3-c]pyridin-4-yl)-2H-1,4-benzoxazin-3(4H)-one]
IC50 (BRD4-BD1): ≤ 100 nM
IC50 (BRD4-BD2): ≤ 100 nM

COc1cc2c(c(-c3cn(C)c(=O)c4[nH]ncc34)c1)OC(C)(C)C(=O)N2 [Example 29, 6-methoxy-2,2-dimethyl-8-(6-methyl-7-oxo-6,7-dihydro-1H-pyrazolo[3,4-c]pyridin-4-yl)-2H-1,4-benzoxazin-3(4H)-one]
IC50 (BRD4-BD1): ≤ 100 nM
IC50 (BRD4-BD2): ≤ 100 nM

CC(=O)c1cc2c(c(-c3cn(C)c(=O)c4[nH]ccc34)c1)OC(C)(C)C(=O)N2 [Example 80, 6-acetyl-2,2-dimethyl-8-(6-methyl-7-oxo-6,7-dihydro-1H-pyrrolo[2,3-c]pyridin-4-yl)-2H-1,4-benzoxazin-3(4H)-one]
IC50 (BRD4-BD1): ≤ 100 nM
IC50 (BRD4-BD2): ≤ 100 nM

CC(=O)c1cc(-c2cn(C)c(=O)c3[nH]ccc23)c2c(c1)N(C)C(=O)C(C)(C)O2 [Example 82, 6-acetyl-2,2,4-trimethyl-8-(6-methyl-7-oxo-6,7-dihydro-1H-pyrrolo[2,3-c]pyridin-4-yl)-2H-1,4-benzoxazin-3(4H)-one]
IC50 (BRD4-BD1): ≤ 100 nM
IC50 (BRD4-BD2): ≤ 100 nM

Cn1cc(-c2cccc3c2OC(C)(C)C(=O)N3)c2cc[nH]c2c1=O [Example 31, 2,2-dimethyl-8-(6-methyl-7-oxo-6,7-dihydro-1H-pyrrolo[2,3-c]pyridin-4-yl)-2H-1,4-benzoxazin-3(4H)-one]
IC50 (BRD4-BD1): ≤ 100 nM
IC50 (BRD4-BD2): ≤ 100 nM

Cn1cc(-c2cc(S(C)(=O)=O)cc3c2NC2(CCCC2)C(=O)N3)c2cc[nH]c2c1=O [Example 59, 8′-(6-methyl-7-oxo-6,7-dihydro-1H-pyrrolo[2,3-c]pyridin-4-yl)-6′-(methylsulfonyl)-1′,4′-dihydro-3′H-spiro[cyclopentane-1,2′-quinoxalin]-3′-one]
IC50 (BRD4-BD1): ≤ 100 nM
IC50 (BRD4-BD2): ≤ 100 nM

CC(O)c1cc(-c2cn(C)c(=O)c3[nH]ccc23)c2c(c1)N(C)C(=O)C(C)(C)O2 (stereo not drawn) [Example 83, 6-(1-hydroxyethyl)-2,2,4-trimethyl-8-(6-methyl-7-oxo-6,7-dihydro-1H-pyrrolo[2,3-c]pyridin-4-yl)-2H-1,4-benzoxazin-3(4H)-one]
IC50 (BRD4-BD1): ≤ 100 nM
IC50 (BRD4-BD2): ≤ 100 nM

CC(C)C1Oc2c(-c3cn(C)c(=O)c4[nH]ccc34)cc(S(C)(=O)=O)cc2N(C)C1=O (single isomer, unassigned) [Example 47A, 2-isopropyl-4-methyl-8-(6-methyl-7-oxo-6,7-dihydro-1H-pyrrolo[2,3-c]pyridin-4-yl)-6-(methylsulfonyl)-2H-1,4-benzoxazin-3(4H)-one]
IC50 (BRD4-BD1): ≤ 100 nM
IC50 (BRD4-BD2): ≤ 100 nM

Cn1cc(-c2cccc3c2OC(C2CCOCC2)C(=O)N3)c2cc[nH]c2c1=O (stereo not drawn) [Example 7, 8-(6-methyl-7-oxo-6,7-dihydro-1H-pyrrolo[2,3-c]pyridin-4-yl)-2-(tetrahydro-2H-pyran-4-yl)-2H-1,4-benzoxazin-3(4H)-one]
IC50 (BRD4-BD1): ≤ 100 nM
IC50 (BRD4-BD2): ≤ 100 nM

Cn1cc(-c2cc(S(C)(=O)=O)cc3c2OC(c2ccccc2)C(=O)N3)c2cc[nH]c2c1=O (stereo not drawn) [Example 46, 8-(6-methyl-7-oxo-6,7-dihydro-1H-pyrrolo[2,3-c]pyridin-4-yl)-6-(methylsulfonyl)-2-phenyl-2H-1,4-benzoxazin-3(4H)-one]
IC50 (BRD4-BD1): ≤ 100 nM
IC50 (BRD4-BD2): ≤ 100 nM

CCC1Oc2c(-c3cn(C)c(=O)c4[nH]ccc34)cccc2N(C)C1=O (stereo not drawn) [Example 8, 2-ethyl-4-methyl-8-(6-methyl-7-oxo-6,7-dihydro-1H-pyrrolo[2,3-c]pyridin-4-yl)-2H-1,4-benzoxazin-3(4H)-one]
IC50 (BRD4-BD1): 100 to 1000 nM
IC50 (BRD4-BD2): ≤ 100 nM

COc1cc2c(c(-c3cn(C)c(=O)c4[nH]ccc34)c1)OC(C)(C)C(=O)N2 [Example 27, 6-methoxy-2,2-dimethyl-8-(6-methyl-7-oxo-6,7-dihydro-1H-pyrrolo[2,3-c]pyridin-4-yl)-2H-1,4-benzoxazin-3(4H)-one]
IC50 (BRD4-BD1): ≤ 100 nM
IC50 (BRD4-BD2): ≤ 100 nM

CNC(=O)CN1C(=O)C(C(C)C)Oc2c(-c3cn(C)c(=O)c4[nH]ccc34)cc(OC)cc21 (stereo not drawn) [Example 12, 2-[2-isopropyl-6-methoxy-8-(6-methyl-7-oxo-6,7-dihydro-1H-pyrrolo[2,3-c]pyridin-4-yl)-3-oxo-2,3-dihydro-4H-1,4-benzoxazin-4-yl]-N-methylacetamide]
IC50 (BRD4-BD1): 100 to 1000 nM
IC50 (BRD4-BD2): ≤ 100 nM

Cn1cc(-c2cccc3c2OC2(CC2)C(=O)N3)c2cc[nH]c2c1=O [Example 30, 8-(6-methyl-7-oxo-6,7-dihydro-1H-pyrrolo[2,3-c]pyridin-4-yl)spiro[1,4-benzoxazine-2,1′-cyclopropan]-3(4H)-one]
IC50 (BRD4-BD1): ≤ 100 nM
IC50 (BRD4-BD2): ≤ 100 nM

CC(C)S(=O)(=O)c1cc2c(c(-c3cn(C)c(=O)c4[nH]ccc34)c1)OC(C)(C)C(=O)N2 [Example 79, 6-(isopropylsulfonyl)-2,2-dimethyl-8-(6-methyl-7-oxo-6,7-dihydro-1H-pyrrolo[2,3-c]pyridin-4-yl)-2H-1,4-benzoxazin-3(4H)-one]
IC50 (BRD4-BD1): ≤ 100 nM
IC50 (BRD4-BD2): ≤ 100 nM

CC(C)C1Oc2c(cc(S(C)(=O)=O)cc2-c2cn(C)c(=O)c3[nH]ccc23)NC1=O (single isomer, unassigned) [Example 44B, 2-isopropyl-8-(6-methyl-7-oxo-6,7-dihydro-1H-pyrrolo[2,3-c]pyridin-4-yl)-6-(methylsulfonyl)-2H-1,4-benzoxazin-3(4H)-one]
IC50 (BRD4-BD1): ≤ 100 nM
IC50 (BRD4-BD2): ≤ 100 nM

CC(C)C1Oc2c(-c3cn(C)c(=O)c4[nH]ccc34)cc(C#N)cc2N(C)C1=O (stereo not drawn) [Example 18, 2-isopropyl-4-methyl-8-(6-methyl-7-oxo-6,7-dihydro-1H-pyrrolo[2,3-c]pyridin-4-yl)-3-oxo-3,4-dihydro-2H-1,4-benzoxazine-6-carbonitrile]
IC50 (BRD4-BD1): 100 to 1000 nM
IC50 (BRD4-BD2): ≤ 100 nM

CC(C)[C@@H]1Nc2c(cc(S(C)(=O)=O)cc2-c2cn(C)c(=O)c3[nH]ccc23)NC1=O [Example 60, (3S)-3-isopropyl-5-(6-methyl-7-oxo-6,7-dihydro-1H-pyrrolo[2,3-c]pyridin-4-yl)-7-(methylsulfonyl)-3,4-dihydroquinoxalin-2(1H)-one]
IC50 (BRD4-BD1): ≤ 100 nM
IC50 (BRD4-BD2): ≤ 100 nM

Cn1cc(-c2cc(S(C)(=O)=O)cc3c2OC2(CC2)C(=O)N3)c2cc[nH]c2c1=O [Example 57, 8-(6-methyl-7-oxo-6,7-dihydro-1H-pyrrolo[2,3-c]pyridin-4-yl)-6-(methylsulfonyl)spiro[1,4-benzoxazine-2,1′-cyclopropan]-3(4H)-one]
IC50 (BRD4-BD1): ≤ 100 nM
IC50 (BRD4-BD2): ≤ 100 nM

Cn1cc(-c2cc(S(C)(=O)=O)cc3c2OC(C)(C)C(=O)N3)c2cc[nH]c2c1=O [Example 45, 2,2-dimethyl-8-(6-methyl-7-oxo-6,7-dihydro-1H-pyrrolo[2,3-c]pyridin-4-yl)-6-(methylsulfonyl)-2H-1,4-benzoxazin-3(4H)-one]
IC50 (BRD4-BD1): ≤ 100 nM
IC50 (BRD4-BD2): ≤ 100 nM

Cn1cc(-c2cc(S(C)(=O)=O)cc3c2OC(CCO)C(=O)N3)c2cc[nH]c2c1=O (stereo not drawn) [Example 48, 2-(2-hydroxyethyl)-8-(6-methyl-7-oxo-6,7-dihydro-1H-pyrrolo[2,3-c]pyridin-4-yl)-6-(methylsulfonyl)-2H-1,4-benzoxazin-3(4H)-one]
IC50 (BRD4-BD1): ≤ 100 nM
IC50 (BRD4-BD2): ≤ 100 nM

CN1C(=O)C2(CC2)Oc2c(-c3cn(C)c(=O)c4[nH]ccc34)cc(S(C)(=O)=O)cc21 [Example 63, 4-methyl-8-(6-methyl-7-oxo-6,7-dihydro-1H-pyrrolo[2,3-c]pyridin-4-yl)-6-(methylsulfonyl)spiro[1,4-benzoxazine-2,1′-cyclopropan]-3(4H)-one]
IC50 (BRD4-BD1): ≤ 100 nM
IC50 (BRD4-BD2): ≤ 100 nM

CC(=O)c1cc2c(c(-c3cn(C)c(=O)c4[nH]ccc34)c1)OC(C(C)C)C(=O)N2 (stereo not drawn) [Example 49, 6-acetyl-2-isopropyl-8-(6-methyl-7-oxo-6,7-dihydro-1H-pyrrolo[2,3-c]pyridin-4-yl)-2H-1,4-benzoxazin-3(4H)-one]
IC50 (BRD4-BD1): ≤ 100 nM
IC50 (BRD4-BD2): ≤ 100 nM

COc1cc2c(c(-c3cn(C)c(=O)c4[nH]ncc34)c1)OC(C1CCCC1)C(=O)N2 (single isomer, unassigned) [Example 42B, 2-cyclopentyl-6-methoxy-8-(6-methyl-7-oxo-6,7-dihydro-1H-pyrazolo[3,4-c]pyridin-4-yl)-2H-1,4-benzoxazin-3(4H)-one]
IC50 (BRD4-BD2): ≤ 100 nM

COc1cc2c(c(-c3cn(C)c(=O)c4[nH]ccc34)c1)OC(C1CCCC1)C(=O)N2 (stereo not drawn) [Example 35, 2-cyclopentyl-6-methoxy-8-(6-methyl-7-oxo-6,7-dihydro-1H-pyrrolo[2,3-c]pyridin-4-yl)-2H-1,4-benzoxazin-3(4H)-one]
IC50 (BRD4-BD1): ≤ 100 nM

COc1cc2c(c(-c3cn(C)c(=O)c4[nH]ccc34)c1)OC(C(C)C)C(=O)N2 (stereo not drawn) [Example 9, 2-isopropyl-6-methoxy-8-(6-methyl-7-oxo-6,7-dihydro-1H-pyrrolo[2,3-c]pyridin-4-yl)-2H-1,4-benzoxazin-3(4H)-one]
IC50 (BRD4-BD1): ≤ 100 nM
